Results published in US20240261367A1, “CYCLIC PEPTIDE IMMUNOMODULATORS” (priority 2021, published 2024).
Starred links: 1 amine or outer side, 2 acyl side, 3 side chain; linkers in the order of their positions; H or OH if unused. Positions of bridges follow the written chain, without caps; N, C: chain ends. Non-standard residues stand in square brackets, D forms with d. Residues, ends and D or L forms follow the SMILES beside them. X2 = COC(=O)CCCCCCCCCCCCCCCCC(=O)N[C@@H](CCC(=O)NCCOCCOCCOCCOCCOCCOCCOCCOCCOCCOCCOCCn1cc(C[C@H](NC(=N)CNC(=O)[C@H](CSCC(=O)[*:1])NC(=N)[C@H](CC(C)C)N[*:2])C(=O)OC)nn1)C(=O)OC; Trp(1-CH2CO2Me) = COC(=O)Cn1cc(C[C@H](N)C(=O)O)c2ccccc21; Hyp = O=C(O)[C@@H]1C[C@@H](O)CN1; NMeNle = CCCC[C@H](NC)C(=O)O; NMeA = CN[C@@H](C)C(=O)O; Dab = NCC[C@H](N)C(=O)O; Dap = NC[C@H](N)C(=O)O

Target: T1, PD-1/PD-L1 (Homo sapiens, UniProt Q9NZQ7)
T1 construct: TVMV protease site linker (C); made in house; host or cells: HEK293T cells
T1 sequence (Q9NZQ7 18-239): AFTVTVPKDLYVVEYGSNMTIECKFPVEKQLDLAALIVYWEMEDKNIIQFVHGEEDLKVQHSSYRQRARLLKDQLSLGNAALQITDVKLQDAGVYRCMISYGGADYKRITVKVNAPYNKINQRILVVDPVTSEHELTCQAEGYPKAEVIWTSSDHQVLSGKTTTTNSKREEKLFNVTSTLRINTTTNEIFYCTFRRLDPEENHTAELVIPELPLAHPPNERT
Assay: PD-1/PD-L1 Homogenous Time-Resolved Fluorescence (HTRF) binding assay
Settings: PD-L1-His (10 nM) pre-incubated with inhibitor 15 m, then PD-1-Ig (20 nM)

| SMILES | IC50 |
| --- | --- |
| CCCC[C@H]1C(=O)N(C)[C@@H](CCCC)C(=O)N[C@@H](CC(C)C)C(=N)N[C@H](C(=O)NCC(=N)N[C@@H](Cc2cn(CCOCCOCCOCCOCCOCCOCCOCCOCCOCCOCCOCCNC(=O)CC[C@H](NC(=O)CCCCCCCCCCCCCCCCC(=O)OC)C(=O)OC)nn2)C(=O)OC)CSCC(=O)NCC(=O)N(C)[C@@H](C)C(=O)N[C@@H](CC(N)=O)C(=O)N2CCC[C@H]2C(=O)N[C@@H](CN)C(=O)N[C@@H](CC(C)C)C(=O)N2C[C@H](O)C[C@H]2C(=O)N[C@@H](Cc2c[nH]c3ccccc23)C(=O)N[C@@H](CCN)C(=O)N[C@@H](Cc2cn(CC(=O)OC)c3ccccc23)C(=O)N1C [Example 1001] (G[NMeA]NP[Dap]L[Hyp]W[Dab][Trp(1-CH2CO2Me)][NMeNle][NMeNle]; linker N-C via X2) | 7.3 nM |
| CCCC[C@H]1C(=O)N(C)[C@@H](CCCC)C(=O)N[C@@H](CC(C)C)C(=O)N[C@H](C(=O)NCC(=O)N[C@@H](Cc2cn(CCOCCOCCOCCOCCOCCOCCOCCOCCOCCOCCOCCNC(=O)CC[C@H](NC(=O)CCCCCCCCCCCCCCCCC(=O)O)C(=O)O)nn2)C(=O)O)CSCC(=O)N[C@@H](Cc2ccc(O)cc2)C(=O)N(C)[C@@H](C)C(=O)N[C@@H](CC(N)=O)C(=O)N2CCC[C@H]2C(=O)N[C@@H](CNC(=O)OC)C(=O)N[C@@H](CC(C)C)C(=O)N2C[C@H](O)C[C@H]2C(=O)N[C@@H](Cc2c[nH]c3ccccc23)C(=O)N[C@@H](CCNC(=O)OC)C(=O)N[C@@H](CC2=CC(CC(=O)O)c3ccccc32)C(=O)N1C (some centres unmarked) [Example 1019] | 6.3 nM |
| CCCC[C@H]1C(=O)N(C)[C@@H](CCCC)C(=O)N[C@@H](CC(C)C)C(=O)N[C@H](C(=O)NCC(=O)N[C@@H](Cc2cn(CCOCCOCCOCCOCCOCCOCCOCCOCCOCCOCCOCCNC(=O)CC[C@H](NC(=O)CCCCCCCCCCCCCCCCC(=O)O)C(=O)O)nn2)C(=O)O)CSCC(=O)N[C@@H](Cc2ccc(O)cc2)C(=O)N(C)[C@@H](C)C(=O)N[C@@H](CC(N)=O)C(=O)N2CCC[C@H]2C(=O)N[C@@H](CNC(=O)OC(C)C)C(=O)N[C@@H](CC(C)C)C(=O)N2C[C@H](O)C[C@H]2C(=O)N[C@@H](Cc2c[nH]c3ccccc23)C(=O)N[C@@H](CCN)C(=O)N[C@@H](Cc2cn(CC(=O)O)c3ccccc23)C(=O)N1C [Example 1003] | 9.1 nM |
| CCCC[C@H]1C(=O)N(C)[C@@H](CCCC)C(=O)N[C@@H](CC(C)C)C(=O)N[C@H](C(=O)NCC(=O)N[C@@H](Cc2cn(CCOCCOCCOCCOCCOCCOCCOCCOCCOCCOCCOCCNC(=O)CC[C@H](NC(=O)CCCCCCCCCCCCCCCCC(=O)OC)C(=O)OC)nn2)C(=O)OC)CSCC(=O)N[C@@H](Cc2ccc(O)cc2)C(=O)N(C)[C@@H](C)C(=O)N[C@@H](CC(N)=O)C(=O)N2CCC[C@H]2C(=O)N[C@@H](CNC(=O)OC(C)(C)C)C(=O)N[C@@H](CC(C)C)C(=O)N2C[C@H](O)C[C@H]2C(=O)N[C@@H](Cc2c[nH]c3ccccc23)C(=O)N[C@@H](CCNC(=O)OC(C)(C)C)C(=O)N[C@@H](Cc2cn(CC(=O)OC)c3ccccc23)C(=O)N1C [Example 2001] | 170 nM |
| CCCC[C@H]1C(=O)N(C)[C@@H](CCCC)C(=O)N[C@@H](CC(C)C)C(=O)N[C@H](C(=O)NCC(=O)N[C@@H](Cc2cn(CCOCCOCCOCCOCCOCCOCCOCCOCCOCCOCCOCCNC(=O)CC[C@H](NC(=O)CCCCCCCCCCCCCCCCC(=O)O)C(=O)O)nn2)C(=O)OC)CSCC(=O)N[C@@H](Cc2ccc(O)cc2)C(=O)N(C)[C@@H](C)C(=O)N[C@@H](CC(N)=O)C(=O)N2CCC[C@H]2C(=O)N[C@@H](CN)C(=O)N[C@@H](CC(C)C)C(=O)N2C[C@H](O)C[C@H]2C(=O)N[C@@H](Cc2c[nH]c3ccccc23)C(=O)N[C@@H](CCN)C(=O)N[C@@H](Cc2cn(CC(=O)OC)c3ccccc23)C(=O)N1C [Example 3001] | 10 nM |
| CCCC[C@H]1C(=O)N(C)[C@@H](CCCC)C(=O)N[C@@H](CC(C)C)C(=O)N[C@H](C(=O)NCC(=O)N[C@@H](Cc2cn(CCOCCOCCOCCOCCOCCOCCOCCOCCOCCOCCOCCNC(=O)CC[C@H](NC(=O)CCCCCCCCCCCCCCCCC(=O)O)C(=O)O)nn2)C(=O)O)CSCC(=O)N[C@@H](Cc2ccc(O)cc2)C(=O)N(C)[C@@H](C)C(=O)N[C@@H](CC(N)=O)C(=O)N2CCC[C@H]2C(=O)N[C@@H](CNC(=O)OCCC)C(=O)N[C@@H](CC(C)C)C(=O)N2C[C@H](O)C[C@H]2C(=O)N[C@@H](Cc2c[nH]c3ccccc23)C(=O)N[C@@H](CCN)C(=O)N[C@@H](CC2=CC(CC(=O)O)c3ccccc32)C(=O)N1C (some centres unmarked) [Example 1013] | 9.3 nM |
| CCCC[C@H]1C(=O)N(C)[C@@H](CCCC)C(=O)N[C@@H](CC(C)C)C(=O)N[C@H](C(=O)NCC(=O)N[C@@H](Cc2cn(CCOCCOCCOCCOCCOCCOCCOCCOCCOCCOCCOCCNC(=O)CC[C@H](NC(=O)CCCCCCCCCCCCCCCCC(=O)O)C(=O)O)nn2)C(=O)O)CSCC(=O)N[C@@H](Cc2ccc(O)cc2)C(=O)N(C)[C@@H](C)C(=O)N[C@@H](CC(N)=O)C(=O)N2CCC[C@H]2C(=O)N[C@@H](CNC(=O)OC(C)(C)C)C(=O)N[C@@H](CC(C)C)C(=O)N2C[C@H](O)C[C@H]2C(=O)N[C@@H](Cc2c[nH]c3ccccc23)C(=O)N[C@@H](CCNC(=O)OC(C)(C)C)C(=O)N[C@@H](Cc2cn(CC(=O)O)c3ccccc23)C(=O)N1C [Example 1002] | 6.5 nM |
| CCCC[C@H]1C(=O)N(C)[C@@H](CCCC)C(=O)N[C@@H](CC(C)C)C(=O)N[C@H](C(=O)NCC(=O)N[C@@H](Cc2cn(CCOCCOCCOCCOCCOCCOCCOCCOCCOCCOCCOCCNC(=O)CC[C@H](NC(=O)CCCCCCCCCCCCCCCCC(=O)O)C(=O)O)nn2)C(=O)OC)CSCC(=O)N[C@@H](Cc2ccc(O)cc2)C(=O)N(C)[C@@H](C)C(=O)N[C@@H](CC(N)=O)C(=O)N2CCC[C@H]2C(=O)N[C@@H](CN)C(=O)N[C@@H](CC(C)C)C(=O)N2C[C@H](O)C[C@H]2C(=O)N[C@@H](Cc2c[nH]c3ccccc23)C(=O)N[C@@H](CCN)C(=O)N[C@@H](Cc2cn(CC(=O)O)c3ccccc23)C(=O)N1C [Example 6003] | 5.5 nM |
| C#CCOC(=O)NC[C@@H]1NC(=O)[C@@H]2CCCN2C(=O)[C@H](CC(N)=O)NC(=O)[C@H](C)N(C)C(=O)[C@H](Cc2ccc(O)cc2)NC(=O)CSC[C@@H](C(=O)NCC(=O)N[C@@H](Cc2cn(CCOCCOCCOCCOCCOCCOCCOCCOCCOCCOCCOCCNC(=O)CC[C@H](NC(=O)CCCCCCCCCCCCCCCCC(=O)O)C(=O)O)nn2)C(=O)O)NC(=O)[C@H](CC(C)C)NC(=O)[C@H](CCCC)N(C)C(=O)[C@H](CCCC)N(C)C(=O)[C@H](CC2=CC(CC(=O)O)c3ccccc32)NC(=O)[C@H](CCN)NC(=O)[C@H](Cc2c[nH]c3ccccc23)NC(=O)[C@@H]2C[C@@H](O)CN2C(=O)[C@H](CC(C)C)NC1=O (some centres unmarked) [Example 1010] | 10 nM |
| CCCC[C@H]1C(=O)N(C)[C@@H](CCCC)C(=O)N[C@@H](CC(C)C)C(=O)N[C@H](C(=O)NCC(=O)N[C@@H](Cc2cn(CCOCCOCCOCCOCCOCCOCCOCCOCCOCCOCCOCCNC(=O)CC[C@H](NC(=O)CCCCCCCCCCCCCCCCC(=O)OCC)C(=O)OC)nn2)C(=O)O)CSCC(=O)N[C@@H](Cc2ccc(O)cc2)C(=O)N(C)[C@@H](C)C(=O)N[C@@H](CC(N)=O)C(=O)N2CCC[C@H]2C(=O)N[C@@H](CN)C(=O)N[C@@H](CC(C)C)C(=O)N2C[C@H](O)C[C@H]2C(=O)N[C@@H](Cc2c[nH]c3ccccc23)C(=O)N[C@@H](CCN)C(=O)N[C@@H](Cc2cn(CC(=O)O)c3ccccc23)C(=O)N1C [Example 1005] | 12 nM |
| CCCC[C@H]1C(=O)N(C)[C@@H](CCCC)C(=O)N[C@@H](CC(C)C)C(=O)N[C@H](C(=O)NCC(=O)N[C@@H](Cc2cn(CCOCCOCCOCCOCCOCCOCCOCCOCCOCCOCCOCCNC(=O)CC[C@H](NC(=O)CCCCCCCCCCCCCCCCC(=O)O)C(=O)O)nn2)C(=O)O)CSCC(=O)N[C@@H](Cc2ccc(O)cc2)C(=O)N(C)[C@@H](C)C(=O)N[C@@H](CC(N)=O)C(=O)N2CCC[C@H]2C(=O)N[C@@H](CNC(=O)OC)C(=O)N[C@@H](CC(C)C)C(=O)N2C[C@H](O)C[C@H]2C(=O)N[C@@H](Cc2c[nH]c3ccccc23)C(=O)N[C@@H](CCNC(=O)OCc2oc(=O)oc2C)C(=O)N[C@@H](Cc2cn(CC(=O)O)c3ccccc23)C(=O)N1C [Example 7005] | 12 nM |
| CCCC[C@H]1C(=O)N(C)[C@@H](CCCC)C(=O)N[C@@H](CC(C)C)C(=O)N[C@H](C(=O)NCC(=O)N[C@@H](Cc2cn(CCOCCOCCOCCOCCOCCOCCOCCOCCOCCOCCOCCNC(=O)CC[C@H](NC(=O)CCCCCCCCCCCCCCCCC(=O)O)C(=O)O)nn2)C(=O)O)CSCC(=O)N[C@@H](Cc2ccc(O)cc2)C(=O)N(C)[C@@H](C)C(=O)N[C@@H](CC(N)=O)C(=O)N2CCC[C@H]2C(=O)N[C@@H](CNC(=O)O[C@H]2CC[C@@]3(C)C(CC[C@H]4[C@@H]5CC[C@H]([C@H](C)CCCC(C)C)[C@@]5(C)CC[C@@H]43)C2)C(=O)N[C@@H](CC(C)C)C(=O)N2C[C@H](O)C[C@H]2C(=O)N[C@@H](Cc2c[nH]c3ccccc23)C(=O)N[C@@H](CC)C(=O)N[C@@H](CC2=CC(CC(=O)O)c3ccccc32)C(=O)N1C (some centres unmarked) [Example 1027] | 110 nM |
| CCCC[C@H]1C(=O)N(C)[C@@H](CCCC)C(=O)N[C@@H](CC(C)C)C(=O)N[C@H](C(=O)NCC(=O)N[C@@H](Cc2cn(CCOCCOCCOCCOCCOCCOCCOCCOCCOCCOCCOCCNC(=O)CC[C@H](NC(=O)CCCCCCCCCCCCCCCCC(=O)OCc3oc(=O)oc3C)C(=O)O)nn2)C(=O)O)CSCC(=O)N[C@@H](Cc2ccc(O)cc2)C(=O)N(C)[C@@H](C)C(=O)N[C@@H](CC(N)=O)C(=O)N2CCC[C@H]2C(=O)N[C@@H](CNC(=O)OCC)C(=O)N[C@@H](CC(C)C)C(=O)N2C[C@H](O)C[C@H]2C(=O)N[C@@H](Cc2c[nH]c3ccccc23)C(=O)N[C@@H](CCN)C(=O)N[C@@H](Cc2cn(CC(=O)O)c3ccccc23)C(=O)N1C [Example 7016] | 34 nM |
| CCCC[C@H]1C(=O)N(C)[C@@H](CCCC)C(=O)N[C@@H](CC(C)C)C(=O)N[C@H](C(=O)NCC(=O)N[C@@H](Cc2cn(CCOCCOCCOCCOCCOCCOCCOCCOCCOCCOCCOCCNC(=O)CC[C@H](NC(=O)CCCCCCCCCCCCCCCCC(=O)O)C(=O)O)nn2)C(=O)OCC)CSCC(=O)N[C@@H](Cc2ccc(O)cc2)C(=O)N(C)[C@@H](C)C(=O)N[C@@H](CC(N)=O)C(=O)N2CCC[C@H]2C(=O)N[C@@H](CN)C(=O)N[C@@H](CC(C)C)C(=O)N2C[C@H](O)C[C@H]2C(=O)N[C@@H](Cc2c[nH]c3ccccc23)C(=O)N[C@@H](CCN)C(=O)N[C@@H](CC2=CC(CC(=O)O)c3ccccc32)C(=O)N1C (some centres unmarked) [Example 1025] | 12 nM |
